Reference: patent publication US20240124439A1, “Pyrido[2,3-D]Imidazole Derivatives and Their Use As Inhibitors of ITK for the Treatment of Skin Disease” (Pfizer Inc., priority 2020, published 2024)

Legend:
[1] = molecular target: Tropomyosin Receptor Kinase A (TRKA), NTRK1 enzyme (Homo sapiens (Human), UniProt P04629); experiment: TRKA (NTRK1) ThermoFisher Z'-LYTE enzyme assay; type: biochemical; settings: test compound 1 uM, ATP 1 mM; arithmetic mean of count n
Experimental: TRKA, also known as neurotrophic tyrosine kinase receptor type 1 (NTKR1) activity was determined by measuring the effect of a test compound on the activity against the NTRK1 enzyme using the ThermoFisher Z′-LYTE Assay fluorescence-based coupled enzyme format (www.thermofisher.com/selectscreen). Test compounds were screened at a fixed concentration of 1 uM and the % inhibition was determined compared to controls at a fixed ATP concentration of 1 mM. The resulting effect value for the tested compound was compared to the assay controls to determine the % inhibition (%).

[2] = tested on: activated CD4+ human T-cells (IL-2); experiment: IL-2 inhibition in supernatants from activated CD4+ human T-cells (cisbio HTRF); type: cell-based; settings: T-cell; CD3/CD28-activated CD4+ human T cells, ImmunoCult stimulation 20 to 24 hrs; geometric mean of count n
Summary of the method: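 Primary human CD4+ T cells activated with CD3/CD28 for 3 days and expanded to 7-9 days total, plated at 30,000 cells/well. Cells preincubated 15 min with compound, then stimulated with ImmunoCult (1:50 final) for 20-24 h at 37° C. Supernatant IL-2 measured by HTRF (665/615 nm); IC50 from four-parameter logistic fit.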

[3] = molecular target: IL-2-Inducible T-Cell Kinase (ITK) (Homo sapiens (Human), UniProt Q08881); experiment: ITK enzyme assay (IL-2-inducible T-cell kinase activity); type: biochemical; settings: geometric mean of count n
Summary of the method: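 Full-length N-Flag/C-His human ITK, pre-incubated 30 min at RT with compound. Reaction in HEPES pH 7.5 buffer with MgCl2, glutathione, gelatin and Brij-35, started with BTK peptide substrate, 60 min at RT. EDTA stop, PT66/APC TR-FRET detection overnight; IC50 fitted by four-parameter logistic.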

Sequence of Tropomyosin Receptor Kinase A (TRKA), NTRK1 enzyme (P04629 33-796): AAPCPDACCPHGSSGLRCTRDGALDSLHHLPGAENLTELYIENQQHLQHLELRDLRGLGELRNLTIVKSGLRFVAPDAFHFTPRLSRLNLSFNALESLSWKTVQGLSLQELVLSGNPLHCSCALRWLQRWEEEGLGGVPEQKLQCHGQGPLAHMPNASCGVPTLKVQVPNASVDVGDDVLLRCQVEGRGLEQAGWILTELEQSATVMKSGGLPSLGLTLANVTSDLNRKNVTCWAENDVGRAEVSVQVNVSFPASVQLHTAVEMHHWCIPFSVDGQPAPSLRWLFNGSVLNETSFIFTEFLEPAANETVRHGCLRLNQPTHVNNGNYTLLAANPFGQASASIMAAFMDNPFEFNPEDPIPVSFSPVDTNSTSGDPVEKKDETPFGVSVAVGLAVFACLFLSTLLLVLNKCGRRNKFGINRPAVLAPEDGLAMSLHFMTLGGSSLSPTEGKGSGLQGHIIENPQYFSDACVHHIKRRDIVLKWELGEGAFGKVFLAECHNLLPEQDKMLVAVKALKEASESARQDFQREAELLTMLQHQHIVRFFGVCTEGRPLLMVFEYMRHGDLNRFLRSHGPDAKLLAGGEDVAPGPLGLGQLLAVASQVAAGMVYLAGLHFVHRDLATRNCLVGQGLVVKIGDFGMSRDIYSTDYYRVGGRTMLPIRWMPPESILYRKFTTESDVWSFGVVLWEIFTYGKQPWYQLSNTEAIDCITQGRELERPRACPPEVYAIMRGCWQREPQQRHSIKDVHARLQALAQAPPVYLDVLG
Sequence of IL-2-Inducible T-Cell Kinase (ITK) (Q08881 whole entry): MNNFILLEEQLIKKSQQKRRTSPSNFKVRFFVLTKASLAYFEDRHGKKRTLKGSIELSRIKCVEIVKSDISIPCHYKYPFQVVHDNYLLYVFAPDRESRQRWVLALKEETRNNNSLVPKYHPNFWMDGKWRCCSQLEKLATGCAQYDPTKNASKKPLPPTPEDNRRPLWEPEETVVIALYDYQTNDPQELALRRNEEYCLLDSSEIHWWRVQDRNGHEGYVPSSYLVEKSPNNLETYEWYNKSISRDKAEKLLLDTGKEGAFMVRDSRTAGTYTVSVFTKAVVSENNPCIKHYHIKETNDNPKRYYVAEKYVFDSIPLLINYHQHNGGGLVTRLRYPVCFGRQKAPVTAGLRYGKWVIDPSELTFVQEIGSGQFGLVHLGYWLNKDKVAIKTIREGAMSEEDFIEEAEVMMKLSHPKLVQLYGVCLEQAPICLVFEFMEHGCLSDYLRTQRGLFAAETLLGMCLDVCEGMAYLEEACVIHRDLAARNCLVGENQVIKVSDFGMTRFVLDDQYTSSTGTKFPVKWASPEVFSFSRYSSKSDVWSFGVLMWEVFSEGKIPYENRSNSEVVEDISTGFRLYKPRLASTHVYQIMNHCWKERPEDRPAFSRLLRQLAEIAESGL

Compound	inhibition at 1 µM [1] [%]	IC50 [2] [nM]	IC50 [3] [nM]
CN(c1cnc2nc(-c3n[nH]c4c3C[C@@H]3C[C@]3(C)C4)[nH]c2c1)C(=O)[C@H]1C[C@H](C)C1 [Example 84, (1r,3S)-N,3-Dimethyl-N-(2-((4aS,5aR)-5a-methyl-1,4,4a,5,5a,6-hexahydrocyclopropa[f]indazol-3-yl)-1H-imidazo[4,5-b]pyridin-6-yl)cyclobutane-1-carboxamide]	96	288	31
CN(C(=O)C(C)(C)C)c1cnc2nc(-c3n[nH]c4c3C[C@@H]3C[C@]3(C)C4)[nH]c2c1 [Example 86, N-Methyl-N-(2-((4aS,5aR)-5a-methyl-1,4,4a,5,5a,6-hexahydrocyclopropa[f]indazol-3-yl)-1H-imidazo[4,5-b]pyridin-6-yl)pivalamide]	95	466	100
CN(C(=O)C1(F)CCC1)c1cnc2[nH]c(-c3n[nH]c4c3CCC(C)(C)C4)nc2c1 [Example 95, N-(2-(6,6-Dimethyl-4,5,6,7-tetrahydro-1H-indazol-3-yl)-3H-imidazo[4,5-b]pyridin-6-yl)-1-fluoro-N-methylcyclobutane-1-carboxamide]	93	266	64
CN(C(=O)CCC(C)(F)F)c1cnc2[nH]c(-c3n[nH]c4c3CCC(C)(C)C4)nc2c1 [Example 97, N-(2-(6,6-Dimethyl-4,5,6,7-tetrahydro-1H-indazol-3-yl)-3H-imidazo[4,5-b]pyridin-6-yl)-4,4-difluoro-N-methylpentanamide]	92	287	56
